PubChem BioAssay (NCI)
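Cultured in 96-well plates, cells were exposed to test compound for 48 hours across five concentrations. Definition used: TGI = concentration required for complete inhibition of growth.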

Test system: CAKI-1 renal
Assay: NCI tumour cell line growth inhibition, 48 h

SMILES | TGI [µM]
COC1(c2ccc(Cl)cc2)SC=C(C)n2c1noc2=O (stereo not drawn) | > 100
NC1CC(=O)c2cscc21 (stereo not drawn) | 29.3
CC1=CC(=O)[C@@H](O)[C@]2(C)[C@H]3[C@@]4(O)OC[C@]35[C@H]([C@@H](C)[C@H]4O)[C@@H](OC(=O)C(C)(C)CO)C(=O)O[C@@H]5C[C@@H]12 | 9.88

Test system: HCC-2998 colon
Assay: NCI tumour cell line growth inhibition, 48 h

SMILES | TGI [µM]
COc1ccc(/C=c2/sc3n(c2=O)C(c2ccccc2)C2(O)CCCCC2N=3)cc1 (stereo not drawn) | > 12.5
CCCN(CCC)CCc1ccc(OC2=CCN(C)CC2)cc1 | > 100
O=C1OCN(c2ccccc2)C12CCN(Cc1ccccc1)CC2 | 32.6
Cc1ccc2c(c1)[nH]c(=S)n2C=C(C(N)=O)C(N)=O | > 100
Cn1c(=O)c2c3ccccc3n(C)c2n(C)c1=O | > 100
CN(C)CCNc1ccc([N+](=O)[O-])c2sc3ccccc3c(=O)c12 | 13.1
COc1cc(NC(C)c2ccc3c(c2)OCCO3)cc(OC)c1OC (stereo not drawn) | > 100
Cc1cccc2oc3c(CC(=O)O)cccc3c(=O)c12 | 40.9
S=c1nc2sc3c(c2c(Nc2ccc(Cl)cc2)[nH]1)CCCC3 | > 100
O=[N+]([O-])c1cccc2nc3ccccc3c(NCCCCNc3c4ccccc4nc4cccc([N+](=O)[O-])c34)c12 | 0.164
C/C=C/C(C#N)(/C=C/c1ccccc1)OP1(=O)OC(c2ccccc2)C(C)N1C (stereo not drawn) | 27.5
CN(C)CCCN1c2ccc([N+](=O)[O-])cc2CCc2cccc([N+](=O)[O-])c21 | 26.3
C=C(C)[C@@H]1CCC2=C[C@@H](OC2=O)[C@@H](C(=C)C)C2=CC(C(=O)O)=C(C1)O2 | > 100
S=C(N1CCN(c2ccc(Cl)c(Cl)c2)CC1)N1CCN(c2ccc(Cl)c(Cl)c2)CC1 | 26.6
CSCCCN(CCCSC)CCCSC | > 100
COc1cc(-c2ccc(Br)[nH]2)[nH]c1C=NCC(C)C | 4.67
Cc1ccc(-c2n[nH]c(Cc3nc(-c4ccc(C)cc4)n[nH]3)n2)cc1 | > 100
c1ccc(C(C2=Nc3cccc4cccc(c34)N2)c2ccccc2)cc1 | 37.8
Cc1nnc2n1N=C(c1ccccc1)/C(=C/c1ccc(-c3ccc(Cl)cc3)o1)S2 | 19.9
CN(CC(=O)N1CC(CCl)c2ccc([N+](=O)[O-])cc21)CC(=O)N1CC(CCl)c2ccc([N+](=O)[O-])cc21 (stereo not drawn) | > 100
COC(=O)NC(Nc1ccccn1)(C(F)(F)F)C(F)(F)F | > 100
CC(=O)Nc1oc(C)c(C)c1S(=O)(=O)c1ccc(Cl)cc1 | > 100
COC1(c2ccc(Cl)cc2)SC=C(C)n2c1noc2=O (stereo not drawn) | > 100
CC1=CC(=O)[C@@H](O)[C@]2(C)[C@H]3[C@@]4(O)OC[C@]35[C@H]([C@@H](C)[C@H]4O)[C@@H](OC(=O)C(C)(C)CO)C(=O)O[C@@H]5C[C@@H]12 | 1

Test system: HL-60(TB) leukemia
Assay: NCI tumour cell line growth inhibition, 48 h

SMILES | TGI [µM]
COc1ccc(/C=c2/sc3n(c2=O)C(c2ccccc2)C2(O)CCCCC2N=3)cc1 (stereo not drawn) | > 12.5
CCCN(CCC)CCc1ccc(OC2=CCN(C)CC2)cc1 | > 100
O=C1OCN(c2ccccc2)C12CCN(Cc1ccccc1)CC2 | > 100
Cc1ccc2c(c1)[nH]c(=S)n2C=C(C(N)=O)C(N)=O | > 100
Cn1c(=O)c2c3ccccc3n(C)c2n(C)c1=O | > 100
CN(C)CCNc1ccc([N+](=O)[O-])c2sc3ccccc3c(=O)c12 | 12.5
COc1cc(NC(C)c2ccc3c(c2)OCCO3)cc(OC)c1OC (stereo not drawn) | 48.6
CN1Cc2ccccc2S(=O)(=O)n2cccc2C1=O | > 100
Cc1cccc2oc3c(CC(=O)O)cccc3c(=O)c12 | > 100
S=c1nc2sc3c(c2c(Nc2ccc(Cl)cc2)[nH]1)CCCC3 | > 100
CCCCS(=O)(=O)CCC(N)P(=O)(O)O (stereo not drawn) | > 100
O=[N+]([O-])c1cccc2nc3ccccc3c(NCCCCNc3c4ccccc4nc4cccc([N+](=O)[O-])c34)c12 | 0.0246
C/C=C/C(C#N)(/C=C/c1ccccc1)OP1(=O)OC(c2ccccc2)C(C)N1C (stereo not drawn) | 32.9
CN(C)CCCN1c2ccc([N+](=O)[O-])cc2CCc2cccc([N+](=O)[O-])c21 | 37
C=C(C)[C@@H]1CCC2=C[C@@H](OC2=O)[C@@H](C(=C)C)C2=CC(C(=O)O)=C(C1)O2 | > 100
Cc1ccc(S(=O)(=O)NC(=O)NC(CC(N)=O)C(=O)O)cc1 (stereo not drawn) | > 100
CSCCCN(CCCSC)CCCSC | 50.7
COc1cc(-c2ccc(Br)[nH]2)[nH]c1C=NCC(C)C | 3.9
c1ccc(C(C2=Nc3cccc4cccc(c34)N2)c2ccccc2)cc1 | > 100
Cc1nnc2n1N=C(c1ccccc1)/C(=C/c1ccc(-c3ccc(Cl)cc3)o1)S2 | 28.4
CN(CC(=O)N1CC(CCl)c2ccc([N+](=O)[O-])cc21)CC(=O)N1CC(CCl)c2ccc([N+](=O)[O-])cc21 (stereo not drawn) | > 100
COC(=O)NC(Nc1ccccn1)(C(F)(F)F)C(F)(F)F | > 100
CC(=O)Nc1oc(C)c(C)c1S(=O)(=O)c1ccc(Cl)cc1 | > 100
COC1(c2ccc(Cl)cc2)SC=C(C)n2c1noc2=O (stereo not drawn) | > 100
NC1CC(=O)c2cscc21 (stereo not drawn) | 33.3
CC1=CC(=O)[C@@H](O)[C@]2(C)[C@H]3[C@@]4(O)OC[C@]35[C@H]([C@@H](C)[C@H]4O)[C@@H](OC(=O)C(C)(C)CO)C(=O)O[C@@H]5C[C@@H]12 | > 100

Test system: HT29 colon
Assay: NCI tumour cell line growth inhibition, 48 h

SMILES | TGI [µM]
COc1ccc(/C=c2/sc3n(c2=O)C(c2ccccc2)C2(O)CCCCC2N=3)cc1 (stereo not drawn) | > 12.5
CCCN(CCC)CCc1ccc(OC2=CCN(C)CC2)cc1 | 46.4
O=C1OCN(c2ccccc2)C12CCN(Cc1ccccc1)CC2 | 31.9
Cc1ccc2c(c1)[nH]c(=S)n2C=C(C(N)=O)C(N)=O | > 100
Cn1c(=O)c2c3ccccc3n(C)c2n(C)c1=O | > 100
